We go through two molecules from patent US20240024292A1, “ATALUREN EYE DROP FORMULATION” (INSTITUT NATIONAL DE LA SANTÉ ET DE LA RECHERCHE MÉDICALE, priority 2020, published 2024).

Values after ≈ are worked out from the molar mass of the structure shown. “Also recorded” adds a separate entry of the source.

A word on the solubility: it is how much of the substance goes into solution per volume.

The conditions of series [1]: ophthalmic application, DMSO in association with dilute povidone-iodine; cited from earlier work.
Series [2] in a line: Forced degradation studies (acidic, alkaline, oxidative stress at 60° C.), HPLC quantification. The format is physicochemical. The method, then: (§1) For each unit, ataluren was quantified using the liquid chromatography method adapted from the method described by Kong et al.. Analyses were performed on a Thermo Scientific Ultimate 3000 chromatogram system (Villebon-sur-Yvette, France) including a quaternary pump (LPG 3400A), an automatic sampler (WPS 3000TSL), a diode array detector (DAD 300016) with 5 cm flow cell, and the associated software used to record and interpret chromatograms (Chromeleon®, Version 8.0). The stationary phase consisted in a Kinetex® C18 column (250×4.6 mm; 5 μm, Phenomenex, Le Pecq, France). The mobile phase was a gradient mixture of 0.1% formic acid (A) and acetonitrile (B). The flow rate was maintained at 1 mL/min, and the gradient profile was as follows: t0-11 min: A=30% B=70%; t11-15 min A=70% B=30%. The injection volume was 50 μL. The drug absorbance for quantification was obtained at 276 nm.
[…] To mimic the potential photodegradation occurring prior or after drug administration, photolytic studies were carried out by exposing the drug solutions to direct UV-visible light with and without photocatalyst or photosensitizer (i.e. titanium oxide 1 g L-1, riboflavin 100 mg L-1). Photolysis experiments were performed using a QSUN-XE-1 (Q-Lab, Bolton, United Kingdom) light chamber equipped with a xenon lamp, which simulates natural sunlight in a wavelength range of 300-800 nm. […]

Series [3] can be described thus: Photolysis under simulated sunlight, with and without photocatalyst or photosensitizer. The format is physicochemical. As to conditions: for % remaining: Direct photolysis, visible ~119,600 lx, UVA 300-400 nm 66.5 W m^−2; for degradation in direct photolytic stress condition: direct light exposure. The method, then:
as §1
The specificity was assessed by subjecting the ataluren 1% solubilized in DMSO (10%) and castor oil solutions to various forced degradation conditions: 0.1M hydrochloric acid (HCl), 0.1M sodium hydroxide (NaOH), 0.3% and 15% hydrogen peroxide (H2O2) for 24 h, 48 h, and 72 h at 60° C. To mimic the potential photodegradation occurring prior or after drug administration, photolytic studies were carried out by exposing the drug solutions to direct UV-visible light with and without photocatalyst or photosensitizer (i.e. titanium oxide 1 g L-1, riboflavin 100 mg L-1). Photolysis experiments were performed using a QSUN-XE-1 (Q-Lab, Bolton, United Kingdom) light chamber equipped with a xenon lamp, which simulates natural sunlight in a wavelength range of 300-800 nm. A Daylight-Q filter was used to simulate CIE Standard Illuminant D65 (Q-Lab) and irradiance was maintained constant (1.5 W m-2 at 420 nm). The measurements corresponded to a visible intensity of ˜119,600 1×, and a UVA intensity at 300-400 nm of 66.5 W m-2. For all the experiments the temperature was controlled and set at 25±0.5° C.

The conditions of series [4]: cited from earlier work.

Turning to `C[S+](C)[O-]` [DMSO, dimethylsulfoxyde], the “patients with mild irritation (stinging, tingling or burning at the application), without serious adverse effects” value in series [1] is 11.8%.

On to `O=C(O)c1cccc(-c2noc(-c3ccccc3F)n2)c1` [ataluren, 3-(5-(2-fluorophenyl)-1,2,4-oxadiazol-3-yl)benzoic acid], for which the “appearance of degradation products” value in series [2] (15% hydrogen peroxide exposure) is on record as “Degradation products appeared”. Also, the degradation under stress entry in series [2] (strong acidic, basic or 0.3% H2O2 conditions, after 7 days exposure) is on record as “not degraded”. The “% remaining” value in series [3] (30 min exposition) was 100.1%; in series [3] (60 min exposition), 102.4%; in series [3] (180 min exposition) it was 100.1%; in series [3] (360 min exposition), 103.4%. Besides, the “degradation in direct photolytic stress condition” value in series [3] is on record as “not degraded”; in series [3] (listed as Ataluren), “did not decrease”. For the same molecule, the “degradation under light with photocatalyst” value in series [3] (in presence of photocatalyst agent (titanium oxide)) is “rapidly degraded; also recorded: decreased”. Also, the “degradation under light with photosensitizer” value in series [3] (in the presence of riboflavin) is given as “This was not the case; also recorded: no degradation was observed”. Further, the solubility in series [4] (1:1 solution of DMSO: PBS pH 7.2) is reported as around 0.5 mg/mL (≈ 1760 µM). Moreover, the “solubility in aqueous buffers” value in series [4] (aqueous buffers) is “sparingly soluble”. For the same molecule, the “solubility in organic solvents” value in series [4] (organic solvents such as dimethyl sulfoxide (DMSO)) was “soluble”. Also, the solubility in water entry in series [4] (water) is recorded as “very slightly soluble”.
